Results taken from ChEMBL document CHEMBL5608234, “Heat Shock Protein 90 Interactome-Mediated Proteolysis Targeting Chimera (HIM-PROTAC) Degrading Glutathione Peroxidase 4 to Trigger Ferroptosis” (J Med Chem, 2024).
The source made the active and inactive calls. No cut-off for these calls is given here.

Tests used:
HT-1080 [1] = assay: Cytotoxicity against human HT-1080 cells incubated for 48 hrs by CCK-8 assay; assay type: functional, cell-based; settings: HT-1080, 48 h
HT-1080 [2] = assay: HIM-PROTAC activity at GPX4/HSP90/E3 ligase in human HT-1080 cells assessed as reduction in GPX4 level at 0.1 to 3 uM incubated for 24 hrs by Western blotting analysis; assay type: cell-based; settings: dose 0.1-3 µM
HT-1080 [3] = assay: HIM-PROTAC activity at GPX4/HSP90/E3 ligase in human HT-1080 cells assessed as reduction in GPX4 level at 0.3 uM incubated for 24 hrs by Western blotting analysis relative to control; assay type: cell-based; set-up: scale not given: the % may be the effect or the level left
HT-1080 [4] = assay: Induction of ferroptosis in human HT-1080 cells assessed as fold increase in cytotoxic IC50 incubated for 48 hrs in presence of Fer-1 by CCK-8 assay; assay type: functional
[5] = Toxicity in BALB/c mouse xenografted with human HT-1080 cells assessed as animal death at 25 mg/kg, ip administered once daily measured after 10 days in presence of 6-chloro-9-((4-methoxy-3,5-dimethylpyridin-2-yl)methyl)-9H-purin-2-amine; assay type: organism-based; settings: in vivo, 240 h, time 10 day
HT-1080 [6] = assay: HIM-PROTAC activity at GPX4/HSP90/E3 ligase in human HT-1080 cells assessed as reduction in GPX4 level at 1 uM incubated for 24 hrs by Western blotting analysis; assay type: cell-based
HT-1080 [7] = assay: HIM-PROTAC activity at GPX4/HSP90/E3 ligase in human HT-1080 cells assessed as reduction in GPX4 level at 1 uM incubated for 24 hrs in presence of 6-chloro-9-((4-methoxy-3,5-dimethylpyridin-2-yl)methyl)-9H-purin-2-amine by Western blotting analysis; assay type: cell-based
HT-1080 [8] = assay: Cytotoxicity against human HT-1080 cells incubated for 48 hrs in presence of Fer-1 by CCK-8 assay; assay type: functional, cell-based; settings: HT-1080, 48 h
HT-1080 [9] = assay: HIM-PROTAC activity at GPX4/HSP90/E3 ligase in human HT-1080 cells assessed as reduction in GPX4 level at 1 uM incubated for 24 hrs in presence of 2-chloro-N-(3-chloro-4-methoxyphenyl)-N-(2-oxo-2-(phenethylamino)-1-(thiophen-2-yl)ethyl)acetamide by Western blotting analysis; assay type: cell-based
[10] = Toxicity in BALB/c mouse xenografted with human HT-1080 cells assessed as animal death at 25 mg/kg, ip administered once daily measured after 10 days in presence of 2-chloro-N-(3-chloro-4-methoxyphenyl)-N-(2-oxo-2-(phenethylamino)-1-(thiophen-2-yl)ethyl)acetamide; assay type: organism-based; settings: in vivo, 240 h, time 10 day

SMILES	IC50 (HT-1080 [1]) [nM]	Activity (HT-1080 [2])	further results
Nc1ncnc2c1nc(Sc1cc3c(cc1I)OCO3)n2CCOCCOCCNC(=O)Cn1cc(COc2ccc(N(C(=O)CCl)C(C(=O)NCCc3ccccc3)c3cccs3)cc2Cl)nn1 (centres undefined)	1500	Active	
COc1c(C)cnc(Cn2cnc3c(N4CCN(C(=O)Cn5cc(COc6ccc(N(C(=O)CCl)C(C(=O)NCCc7ccccc7)c7cccs7)cc6Cl)nn5)CC4)nc(N)nc32)c1C (centres undefined)	4100	Active	
COc1c(C)cnc(Cn2cnc3c(N4CCC(NC(=O)Cn5cc(COc6ccc(N(C(=O)CCl)C(C(=O)NCCc7ccccc7)c7cccs7)cc6Cl)nn5)CC4)nc(N)nc32)c1C (centres undefined)	2400	Active	
COc1c(C)cnc(Cn2cnc3c(NCCOCCOCCOCCNC(=O)Cn4cc(COc5ccc(N(C(=O)CCl)C(C(=O)NCCc6ccccc6)c6cccs6)cc5Cl)nn4)nc(N)nc32)c1C (centres undefined)	3200	Active	
Nc1ncnc2c1nc(Sc1cc3c(cc1I)OCO3)n2CCCCCNC(=O)Cn1cc(COc2ccc(N(C(=O)CCl)C(C(=O)NCCc3ccccc3)c3cccs3)cc2Cl)nn1 (centres undefined)	1300	Active	Activity (HT-1080 [3]): < 50%
COc1c(C)cnc(Cn2cnc3c(N4CCC(N5CCN(C(=O)Cn6cc(COc7ccc(N(C(=O)CCl)C(C(=O)NCCc8ccccc8)c8cccs8)cc7Cl)nn6)CC5)CC4)nc(N)nc32)c1C (centres undefined)	1400	Active	
NCCC1CCN(C(=O)Cn2cc(COc3ccc(N(C(=O)CCl)C(C(=O)NCCc4ccccc4)c4cccs4)cc3Cl)nn2)CC1 (centres undefined)	8300	Active	
COc1c(C)cnc(Cn2cnc3c(NCCOCCOCCOCCOCCOCCn4cc(COc5ccc(N(C(=O)CCl)C(C(=O)NCCc6ccccc6)c6cccs6)cc5Cl)nn4)nc(N)nc32)c1C (centres undefined)	3500	Active	
Nc1ncnc2c1nc(Sc1cc3c(cc1I)OCO3)n2CCNC(=O)CCCCCNC(=O)Cn1cc(COc2ccc(N(C(=O)CCl)C(C(=O)NCCc3ccccc3)c3cccs3)cc2Cl)nn1 (centres undefined)	41500	Active	
COc1ccc(N(C(=O)CCl)C(C(=O)NCCc2ccccc2)c2cccs2)cc1Cl (centres undefined)	760		fold change (FC) (HT-1080 [4]): 3; Activity [5]: Toxic; Activity (HT-1080 [6]): inactive; Activity (HT-1080 [7]): inactive; IC50 (HT-1080 [8]): 2000 nM
COc1c(C)cnc(Cn2cnc3c(NCCOCCOCCn4cc(COc5ccc(N(C(=O)CCl)C(C(=O)NCCc6ccccc6)c6cccs6)cc5Cl)nn4)nc(N)nc32)c1C (centres undefined)	1000	Active	
COc1c(C)cnc(Cn2cnc3c(NCCOCCNC(=O)Cn4cc(COc5ccc(N(C(=O)CCl)C(C(=O)NCCc6ccccc6)c6cccs6)cc5Cl)nn4)nc(N)nc32)c1C (centres undefined)	2400	Active	
COc1c(C)cnc(Cn2cnc3c(NCCCCNC(=O)Cn4cc(COc5ccc(N(C(=O)CCl)C(C(=O)NCCc6ccccc6)c6cccs6)cc5Cl)nn4)nc(N)nc32)c1C (centres undefined)	1100	Active	
Nc1ncnc2c1nc(Sc1cc3c(cc1I)OCO3)n2CCNC(=O)Cn1cc(COc2ccc(N(C(=O)CCl)C(C(=O)NCCc3ccccc3)c3cccs3)cc2Cl)nn1 (centres undefined)	900	Active	
COc1c(C)cnc(Cn2cnc3c(N4CCC(C5CCN(C(=O)Cn6cc(COc7ccc(N(C(=O)CCl)C(C(=O)NCCc8ccccc8)c8cccs8)cc7Cl)nn6)CC5)CC4)nc(N)nc32)c1C (centres undefined)	980	Active	
COc1c(C)cnc(Cn2cnc3c(NCCOCCOCCOCCOCCNC(=O)Cn4cc(COc5ccc(N(C(=O)CCl)C(C(=O)NCCc6ccccc6)c6cccs6)cc5Cl)nn4)nc(N)nc32)c1C (centres undefined)	15200	Active	
O=C1CCC(N2C(=O)c3cccc(NCCOCCOCCOCCn4cc(COc5ccc(N(C(=O)CCl)C(C(=O)NCCc6ccccc6)c6cccs6)cc5Cl)nn4)c3C2=O)C(=O)N1 (centres undefined)	490		Activity (HT-1080 [6]): Active
Nc1ncnc2c1nc(Sc1cc3c(cc1I)OCO3)n2CCNC(=O)CCNC(=O)Cn1cc(COc2ccc(N(C(=O)CCl)C(C(=O)NCCc3ccccc3)c3cccs3)cc2Cl)nn1 (centres undefined)	56100	Active	
COc1c(C)cnc(Cn2cnc3c(NCCC4CCN(C(=O)Cn5cc(COc6ccc(N(C(=O)CCl)C(C(=O)NCCc7ccccc7)c7cccs7)cc6Cl)nn5)CC4)nc(NC(C)=O)nc32)c1C (centres undefined)	15500	Active	
COc1c(C)cnc(Cn2cnc3c(NCCOCCOCCNC(=O)Cn4cc(COc5ccc(N(C(=O)CCl)C(C(=O)NCCc6ccccc6)c6cccs6)cc5Cl)nn4)nc(N)nc32)c1C (centres undefined)	2600	Active	
COc1c(C)cnc(Cn2cnc3c(Cl)nc(N)nc32)c1C [BIIB021]	16200		Activity (HT-1080 [9]): inactive; Activity (HT-1080 [6]): inactive; Activity [10]: Toxic
